Experimental findings from US9567339B2, “Primary carboxamides as BTK inhibitors” (AbbVie Inc., priority 2013, dated 2017) are described below.

BTK, recombinant human catalytic domain (aa 393-659), sequence (Q06187 393-659): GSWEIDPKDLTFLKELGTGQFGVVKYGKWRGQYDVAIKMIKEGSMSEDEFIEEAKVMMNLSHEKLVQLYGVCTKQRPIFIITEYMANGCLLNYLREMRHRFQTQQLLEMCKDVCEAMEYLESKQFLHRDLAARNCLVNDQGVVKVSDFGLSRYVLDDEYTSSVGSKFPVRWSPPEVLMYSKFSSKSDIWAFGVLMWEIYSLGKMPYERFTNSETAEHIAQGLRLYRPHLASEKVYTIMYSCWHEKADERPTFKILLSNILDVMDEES

The first assay concerns the target BTK, recombinant human catalytic domain (aa 393-659) (Homo sapiens (Human), UniProt Q06187). As to the kind of experiment: In vitro BTK kinase activity measured by time-resolved fluorescence resonance energy transfer (trFRET). It counts as biochemical. Particulars: read-out: Btk IC50.
A word on the IC50: it is the point on the concentration scale where inhibition reaches its midpoint. For `Cc1c(NC(=O)CF)cccc1-c1ccc(C(N)=O)c2[nH]c(C3=CCN(S(C)(=O)=O)CC3)cc12` [D.7.22], the IC50 was below 100 nM.
For `C=CC(=O)N1CCO[C@@H](c2ccc(C(N)=O)c3[nH]c(-c4cnn(C)c4)cc23)C1` [E.9.24], the IC50 was below 100 nM.
For the compound `Cc1c(NC(=O)/C=C/CN(C)C)cccc1-c1ccc(C(N)=O)c2[nH]c(C3=CCN(S(C)(=O)=O)CC3)cc12` [D.7.2], the IC50 was below 100 nM.
Still for that read-out and setting: for `Cc1c(NC(=O)c2ccc(C(F)F)cc2)cccc1-c1ccc(C(N)=O)c2[nH]ccc12` [O.1.1] the value was 100 to 1000 nM.
As to `C=CC(=O)N1CC(N(C)c2ccc(C(N)=O)c3[nH]c(C4CCS(=O)(=O)CC4)cc23)C1` [E.9.19], the IC50 is below 100 nM.
For the compound `Cc1ccc(-c2cc3c(-c4ccccn4)ccc(C(N)=O)c3[nH]2)cc1` [U.1.3], the IC50 was 100 to 1000 nM.
Take `Cc1c(NC(=O)COc2cccnn2)cccc1-c1ccc(C(N)=O)c2[nH]c(C3=CCN(S(C)(=O)=O)CC3)cc12` [D.7.28]: the IC50 was below 100 nM.
On the same count and under the same terms, the value for `C=CC(=O)Nc1ccc(F)c(-c2ccc(C(N)=O)c3[nH]ccc23)c1` [E.1.32] was 100 to 1000 nM.
On the same count and under the same terms, for `Cc1c(NC(=O)c2nccs2)cccc1-c1ccc(C(N)=O)c2[nH]c(-c3ccccc3CNC(=O)CCl)cc12` [E.4.1] the value was 100 to 1000 nM; for `C=CC(=O)Nc1ccc(Cl)c(-c2ccc(C(N)=O)c3[nH]ccc23)c1` [E.1.24], below 100 nM; for `C=CC(=O)N1CCC[C@H](c2ccc(C(N)=O)c3[nH]c(-c4cnn(C)c4)cc23)C1` [Example 4.2], below 100 nM.

Still in this assay, the particulars now being: trFRET, 0.001 mM ATP, biotin-TYR1 peptide substrate; read-out: Btk IC50.
In the case of `Cc1c(-c2ccc(C(N)=O)c3[nH]c(C4=CCN(S(C)(=O)=O)CC4)cc23)cccc1N1CCc2ccccc2C1=O` [A.4.6], the IC50 was below 100 nM.
Same read-out and setting: the value for `CNC(=O)/C=C/C(=O)Nc1cccc(-c2ccc(C(N)=O)c3[nH]ccc23)c1` [D.4.1] was 1000 to 10000 nM; that for `Cc1c(NC(=O)/C=C/c2cccnc2)cccc1-c1ccc(C(N)=O)c2[nH]ccc12` [D.8.4] was 100 to 1000 nM.
Regarding `C=CC(=O)Nc1cc(NCc2nccs2)cc(-c2ccc(C(N)=O)c3[nH]c(C4=CCN(S(C)(=O)=O)CC4)cc23)c1` [Example 6, 4-(3-Acrylamido-5-(thiazol-2-ylmethylamino)phenyl)-2-(1-(methylsulfonyl)-1,2,3,6-tetrahydropyridin-4-yl)-1H-indole-7-carboxamide], the IC50 is below 100 nM.
Still for that read-out and setting: the value for `C=CC(=O)Nc1cccc(-c2ccc(C(N)=O)c3[nH]c(-c4ccc(F)nc4)cc23)c1C` [A.1.16] was below 100 nM; that for `CC(=O)N1CC=C(c2cc3c(-c4cccc(-n5cnc6ccccc6c5=O)c4C)ccc(C(N)=O)c3[nH]2)CC1` [A.3.1] was below 100 nM; that for `Cc1c(NC(=O)/C=C/C(C)C)cccc1-c1ccc(C(N)=O)c2[nH]ccc12` [D.8.8] was 100 to 1000 nM.
Same read-out and setting: the value for `CS(=O)(=O)N1CC=C(c2cc3c(N4CC[C@@H](O)[C@H](NC(=O)c5nccs5)C4)ccc(C(N)=O)c3[nH]2)CC1` (relative stereo) [O.1, N-(trans-1-(7-carbamoyl-2-(1-(methylsulfonyl)-1,2,3,6-tetrahydropyridin-4-yl)-1H-indol-4-yl)-4-hydroxypiperidin-3-yl)thiazole-2-carboxamide] was below 100 nM; that for `Cc1c(NC(=O)c2ccc(C(C)(C)C)cc2)cccc1-c1ccc(C(N)=O)c2[nH]c(-c3cccnc3)cc12` [A.7.1] was below 100 nM.
Same read-out and setting: for `NC(=O)c1ccc(-c2cncc(N)c2)c2cc[nH]c12` [A.5.4, 4-(5-aminopyridin-3-yl)-1H-indole-7-carboxamide] the value was 1000 to 10000 nM; for `Cc1c(N)cccc1-c1ccc(C(N)=O)c2[nH]ccc12` [Example 16, 4-(3-Amino-2-methylphenyl)-1H-indole-7-carboxamide], 1000 to 10000 nM; for `Cc1c(NC2COC2)cccc1-c1ccc(C(N)=O)c2[nH]c(C3=CCN(S(C)(=O)=O)CC3)cc12` [A.4.11], below 100 nM.
On to `Cc1ccc(-c2cc3c(Nc4ccnn4C)ccc(C(N)=O)c3[nH]2)cc1` [Preparation #T.1, 4-(1-Methyl-1H-pyrazol-5-ylamino)-2-p-tolyl-1H-indole-7-carboxamide], for which the IC50 was 100 to 1000 nM.
For `CC#CC(=O)NCc1ccccc1-c1cc2c(-c3cccc(NC(=O)c4nccs4)c3C)ccc(C(N)=O)c2[nH]1` [D.1.1], the IC50 fell in the range of 1000 to 10000 nM.
Still for that read-out and setting: for `Cc1c(NC(=O)c2ccc(C(F)F)cc2)cccc1-c1ccc(C(N)=O)c2[nH]c(-c3cncnc3)cc12` [A.13.3] the value was 100 to 1000 nM.
With `Cc1c(-c2ccc(C(N)=O)c3[nH]c(C4=CCN(S(C)(=O)=O)CC4)cc23)cccc1-n1cnc2ccccc2c1=O` [A.4.18], the IC50 was below 100 nM.
Take `Cc1ccc(-c2cc3c(-c4ccncc4)ccc(C(N)=O)c3[nH]2)cc1` [A.8.4]: the IC50 is 100 to 1000 nM.
